Legend:
Experiment in all cases: scanMAX kinase panel
Assay type in all cases: binding
Conditions in all cases: read-out: % Control; for remaining binding at 1 µM: 1000 nM
[1] = target: T1, AXL (Homo sapiens, UniProt P30530)
T1 construct: purchased DiscoverX scanMAX
T1 sequence (P30530 26-894): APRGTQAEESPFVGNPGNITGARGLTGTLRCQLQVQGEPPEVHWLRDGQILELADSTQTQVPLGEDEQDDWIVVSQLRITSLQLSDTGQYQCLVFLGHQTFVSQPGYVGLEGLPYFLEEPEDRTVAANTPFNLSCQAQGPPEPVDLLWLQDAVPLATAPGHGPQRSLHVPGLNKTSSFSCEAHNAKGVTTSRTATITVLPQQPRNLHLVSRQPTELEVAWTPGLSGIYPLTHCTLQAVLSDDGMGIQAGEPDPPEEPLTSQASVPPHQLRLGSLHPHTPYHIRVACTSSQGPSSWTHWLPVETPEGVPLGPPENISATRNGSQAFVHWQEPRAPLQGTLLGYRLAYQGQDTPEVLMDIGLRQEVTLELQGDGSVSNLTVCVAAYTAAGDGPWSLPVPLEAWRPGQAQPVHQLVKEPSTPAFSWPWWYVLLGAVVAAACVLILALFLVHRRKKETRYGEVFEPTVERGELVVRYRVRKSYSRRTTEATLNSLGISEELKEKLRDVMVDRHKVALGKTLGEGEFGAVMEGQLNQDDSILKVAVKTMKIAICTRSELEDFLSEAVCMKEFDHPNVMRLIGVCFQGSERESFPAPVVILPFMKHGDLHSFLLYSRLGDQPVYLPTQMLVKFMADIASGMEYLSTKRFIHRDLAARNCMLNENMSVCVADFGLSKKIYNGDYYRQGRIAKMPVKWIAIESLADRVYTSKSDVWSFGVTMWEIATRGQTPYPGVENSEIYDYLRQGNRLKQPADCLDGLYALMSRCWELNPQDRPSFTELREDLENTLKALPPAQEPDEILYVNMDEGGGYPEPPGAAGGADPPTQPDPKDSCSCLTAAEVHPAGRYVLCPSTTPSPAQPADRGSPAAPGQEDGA
Text: (§1) Supplemental Table S2. scanMAXSM Kinome Assay Results. Complete tabulated data of all 468 kinases from the panel, including
(§2) 403 wild-type and 65 mutant isoforms. […] Cmpd 11 and Cmpd 24

[2] = target: T2, TIE2 (Homo sapiens, UniProt Q02763)
T2 construct: purchased DiscoverX (scanMAX panel)
T2 sequence (Q02763 23-1124): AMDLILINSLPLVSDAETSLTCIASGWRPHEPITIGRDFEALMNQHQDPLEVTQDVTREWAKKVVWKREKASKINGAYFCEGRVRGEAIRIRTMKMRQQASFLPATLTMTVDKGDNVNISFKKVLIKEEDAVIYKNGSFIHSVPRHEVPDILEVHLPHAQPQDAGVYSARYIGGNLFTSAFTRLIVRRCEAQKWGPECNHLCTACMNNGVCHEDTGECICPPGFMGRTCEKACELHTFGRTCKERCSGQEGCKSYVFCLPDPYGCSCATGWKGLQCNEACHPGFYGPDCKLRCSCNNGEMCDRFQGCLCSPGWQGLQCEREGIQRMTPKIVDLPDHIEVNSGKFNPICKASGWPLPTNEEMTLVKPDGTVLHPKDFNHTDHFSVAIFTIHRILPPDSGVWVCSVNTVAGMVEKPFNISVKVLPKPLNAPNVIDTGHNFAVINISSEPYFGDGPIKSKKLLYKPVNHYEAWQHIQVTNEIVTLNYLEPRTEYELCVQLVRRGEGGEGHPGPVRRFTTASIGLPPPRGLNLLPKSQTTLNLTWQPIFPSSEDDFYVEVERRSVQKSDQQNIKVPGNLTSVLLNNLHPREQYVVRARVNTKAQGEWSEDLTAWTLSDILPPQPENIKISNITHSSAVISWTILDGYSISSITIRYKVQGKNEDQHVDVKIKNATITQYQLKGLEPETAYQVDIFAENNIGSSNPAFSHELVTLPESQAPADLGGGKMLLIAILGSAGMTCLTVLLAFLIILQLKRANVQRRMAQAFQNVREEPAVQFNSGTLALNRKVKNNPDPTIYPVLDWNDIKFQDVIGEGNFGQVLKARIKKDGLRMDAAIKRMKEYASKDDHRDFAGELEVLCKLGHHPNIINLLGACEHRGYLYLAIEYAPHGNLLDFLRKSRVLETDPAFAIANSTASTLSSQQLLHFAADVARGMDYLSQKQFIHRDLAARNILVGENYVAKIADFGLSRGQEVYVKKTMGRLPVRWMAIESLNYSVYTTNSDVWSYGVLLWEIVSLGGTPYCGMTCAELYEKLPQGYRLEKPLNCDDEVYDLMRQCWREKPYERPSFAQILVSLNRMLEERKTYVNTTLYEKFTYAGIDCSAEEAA
Text: as §1, §2

[3] = target: T3, HIPK4 (Homo sapiens, UniProt Q8NE63)
T3 construct: purchased DiscoverX scanMAX
T3 sequence (Q8NE63 1-616): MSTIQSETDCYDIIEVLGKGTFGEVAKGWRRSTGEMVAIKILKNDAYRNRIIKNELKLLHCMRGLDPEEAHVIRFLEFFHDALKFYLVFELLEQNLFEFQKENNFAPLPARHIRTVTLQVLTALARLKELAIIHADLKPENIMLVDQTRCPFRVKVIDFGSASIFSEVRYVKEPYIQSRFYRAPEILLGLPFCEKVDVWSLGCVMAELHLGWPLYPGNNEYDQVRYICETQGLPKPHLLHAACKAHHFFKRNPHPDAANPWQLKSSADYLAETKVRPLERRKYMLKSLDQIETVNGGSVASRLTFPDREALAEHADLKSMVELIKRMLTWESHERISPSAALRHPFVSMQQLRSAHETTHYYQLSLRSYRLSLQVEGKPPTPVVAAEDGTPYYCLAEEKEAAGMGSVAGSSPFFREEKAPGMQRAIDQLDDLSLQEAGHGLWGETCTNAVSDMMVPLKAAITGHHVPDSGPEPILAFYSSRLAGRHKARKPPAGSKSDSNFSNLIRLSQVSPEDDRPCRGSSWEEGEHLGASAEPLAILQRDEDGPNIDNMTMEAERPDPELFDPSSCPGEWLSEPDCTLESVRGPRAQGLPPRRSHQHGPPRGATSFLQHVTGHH
Text: as §1, §2

[4] = target: T4, RIPK5 (Homo sapiens, UniProt Q6XUX3)
T4 construct: purchased DiscoverX (scanMAX panel)
T4 sequence (Q6XUX3 1-929): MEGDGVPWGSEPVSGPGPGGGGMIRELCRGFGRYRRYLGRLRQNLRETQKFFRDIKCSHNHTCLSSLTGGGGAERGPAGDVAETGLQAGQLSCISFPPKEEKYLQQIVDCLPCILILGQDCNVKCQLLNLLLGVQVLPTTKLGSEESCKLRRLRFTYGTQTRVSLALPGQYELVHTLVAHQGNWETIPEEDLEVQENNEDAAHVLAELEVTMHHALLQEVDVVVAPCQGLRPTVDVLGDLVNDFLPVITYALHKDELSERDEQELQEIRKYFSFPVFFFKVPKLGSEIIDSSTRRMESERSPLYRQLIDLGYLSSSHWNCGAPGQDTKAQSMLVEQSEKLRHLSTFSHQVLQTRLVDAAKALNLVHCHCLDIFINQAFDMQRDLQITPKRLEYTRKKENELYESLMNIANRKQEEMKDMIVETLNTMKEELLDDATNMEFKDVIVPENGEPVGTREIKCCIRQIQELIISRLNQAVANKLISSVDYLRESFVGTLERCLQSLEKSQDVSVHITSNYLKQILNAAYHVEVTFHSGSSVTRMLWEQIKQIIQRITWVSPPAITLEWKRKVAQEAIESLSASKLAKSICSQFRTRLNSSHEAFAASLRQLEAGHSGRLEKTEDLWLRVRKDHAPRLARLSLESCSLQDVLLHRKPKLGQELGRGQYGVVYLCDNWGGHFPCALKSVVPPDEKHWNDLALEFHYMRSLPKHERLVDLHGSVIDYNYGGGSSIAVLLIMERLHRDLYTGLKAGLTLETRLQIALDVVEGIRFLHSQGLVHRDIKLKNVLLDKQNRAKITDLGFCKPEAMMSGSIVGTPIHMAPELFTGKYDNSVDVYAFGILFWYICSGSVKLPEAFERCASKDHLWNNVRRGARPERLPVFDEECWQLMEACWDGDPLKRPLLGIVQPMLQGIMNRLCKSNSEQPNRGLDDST
Text: as §1, §2

Row | SMILES | remaining binding at 1 µM [1] | remaining binding at 1 µM [2] | remaining binding at 1 µM [3] | remaining binding at 1 µM [4] | remaining binding at 0.1 µM ([1]; 100 nM) | remaining binding at 0.1 µM ([2]; 100 nM) | remaining binding at 0.1 µM ([3]; 100 nM) | remaining binding at 0.1 µM ([4]; 100 nM)
1 | Cc1cc(NC(=O)[C@H](O)c2cccc(F)c2)ccc1-c1cn(C)c2ncnc(N)c12 [Compound 11, (R)-N-(4-(4-amino-7-methyl-7H-pyrrolo[2,3-d]pyrimidin-5-yl)-3-methylphenyl)-2-(3-fluorophenyl)-2-hydroxy acetamide] | 56% | 14% | 16% | 3.4% |  |  |  | 
2 | Cc1nc(N)c2c(-c3ccc(NC(=O)[C@H](O)c4cccc(F)c4)cc3C)cn(C)c2n1 [Compound 24] | 100% | 100% | 100% | 100% |  |  |  | 
3 | Cc1nc(N)c2c(-c3ccc(NC(=O)[C@H](O)c4cccc(C(F)(F)F)c4)cc3C)cn(C)c2n1 [Compound 26] | 0.7% | 65% | 3.8% | 100% | 99% | 100% | 69% | 100%

Reference: article PMC9611727, “Optimization of a Novel Mandelamide-Derived Pyrrolopyrimidine Series of PERK Inhibitors” (Pharmaceutics, 2022)
